Test system: thermal nociceptive threshold (hindpaw withdrawal latency) in rats with peripheral mononeuropathy
Experiment: Hargreaves paw withdrawal (plantar) test in rats with sciatic nerve ligation neuropathy
Format: in vivo, rat
Protocol: The operator positions the I.R. Generator directly beneath the hind paw of the rat and activates both the I.R. Source and a reaction time counter. When the rat feels pain and withdraws its paw, the I.R. Generator is automatically switched off and the timer stops, determining the withdrawal latency.
The testing was carried out on the eighth day following the operative procedure.
In order to determine a baseline for comparison purposes, rats were subjected to the Hargreaves paw withdrawal test before the subcutaneous injection of the various drugs or drug combinations being tested. The rats were then injected subcutaneously with the particular drug or drug combination being tested and the percentage change in time for the rat to withdraw its paw from the thermal stimulation, in comparison with the baseline, was recorded as a percentage in paw withdrawal latency. […]
After 8 days, thermal nociceptive threshold, as determined by hindpaw withdrawal latency, was measured using a plantar test (Ugo Basile, Comero, Italy). […] This initiated a timing circuit which measured the time interval between the application of the light beam and the withdrawal of the hind paw. […]
Paw withdrawal latency was determined before injection and at different times after injection. […]

## C=CCN1CC[C@]23c4c5ccc(O)c4O[C@H]2C(=O)CC[C@@]3(O)[C@H]1C5 [naloxone, 1-N-allyl-14-hydroxynorhydromorphinone]
Example 1, FIG. 1, low dose naloxone, weight ratios 20:1 and 15:1, subcutaneous, rats n=3
  potentiation of sub-clinical doses of buprenorphine: can be clearly seen
Example 2, FIG. 2, buprenorphine 2.5 μg/kg co-administered subcutaneously at weight ratios 5:1 to 30:1, rats n=6
  potentiation of the sub-clinical doses of buprenorphine: can be clearly seen
